Experimental data: patent US20200268864A1, “CANCER VACCINE COMPOSITIONS AND METHODS FOR USING SAME TO TREAT CANCER” (Dana-Farber Cancer Institute, Inc., priority 2017, published 2020)
Entries after “also recorded” stand apart in the source; their conditions may differ.

Legend:
[1] = tested on: PBM tumor-bearing mice; experiment: Flow cytometry of tumor-infiltrating immune cells in PBM tumors; conditions: mouse, in vivo
Protocol: Tumors were first mechanically disrupted by chopping, then chemically digested in collagenase buffer (8 mL DMEM, 0.1 mL 1M HEPES, 0.5 mL FBS, 0.2 mL Pen/Strep, 1 m, 10× collagenase/hyaluronidase (Stemcell Technologies), 0.2 mL of 1 mg/mL DNase I (Stemcell Technologies) at 37° C. for 45 min. Single-cell suspensions of spleen and lymph nodes were obtained by mashed through a 70 um strainer using the plunger of a 3 mL or 5 mL syringe. Single cells suspensions were treated with red blood lysis buffer (4 mL NH4Cl+1 mL PBS with 2% calf serum) and washed with FACS buffer. Single cells suspensions were incubated with LIVE/DEAD Fixable Aqua Dead Cell Stain (Life Technologies, Cat # L34965) for 30 min and then blocked with anti-CD16/32 (BioLegend, clone 93) for 20 min on ice. Samples were then incubated with appropriate antibodies for 30 min. on ice. The Foxp3 staining buffer set (eBioscience, Cat #00-5523-00) was applied for intracellular markers staining. For the intracellular cytokine analysis, cells were stimulated with Leukocyte Activation Cocktail (BD Biosciences, Cat #550583) at 37° C. for 5 hours prior to FACS staining. The following antibodies were used in the experiments and were purchased from BioLegend unless otherwise indicated: CD45 (clone 30-F11), TCRβ (clone H57-597), CD4 (clone RM4-5), CD8 (clone 53-6.7), CD44 (clone IM7), CD62L (MEL-14), CD25 (PC61), IFNγ (clone XMG1.2), TNFα(clone MP6-XT22), PD-1 (clone 29F.1A12), Tim-3 (clone RMT3-23), LAG-3 (clone C9B7W), CD11b (clone M1/70), CD11c (clone […]), F4/80 (clone BM8), Gr-1 (clone RB6-BC5), Ly-6C (clone HK1.4), Ly-6G (clone 1A8), MHCII (clone M5/114.15.2), CD80 (clone 16-10A1), CD86 (clone GL-1), MHC1 (clone KH114). FoxP3 (clone FJK-16 s; eBioscience), Phospho-IRF-3 (Ser396) (clone D6O1M, Cell signaling technology), Phospho-TBK1/NAK (Ser172) (clone D52C2, Cell signaling technology), and LIVE/DEAD® Fixable Aqua Dead Cell Stain Kit (Life Technologies Cat L34965). Flow cytometry was performed on an LSR II (BD Biosciences) or LSRFortessa™ HTS (BD Biosciences) at the DFCI flow cytometry core facility, and all the data were analyzed using FlowJo software.

[2] = tested on: PBM tumor-bearing mice; experiment: Cytokine array of plasma/sera; format: in vivo, mouse; conditions: day 2 of treatment
Protocol: (§1) Blood was obtained by retro-orbital sampling at intermediate time points or experimental end points. Blood cells and plasma/sera were separated by centrifugation at 1,500×g for 5 min. at 4° C. Plasmaisera were sent out to Eve Technologies for cytokine array analysis (Chemokine Array 31-Plex and Mouse Procarta IFN 2-plex Featured Assay). Plasma/sera were applied to ELISA according to manufacturer's instructions. For in vitro experiments, cell culture supernatants were obtained by centrifugation at 1,500×g for 5 min. at 4° C. to remove all debris and cells, and were then subjected to ELISA analysis. IFN-β was detected using the LEGEND MAX™ Mouse IFN-β ELISA Kit (BioLegend).

[3] = tested on: STING pathway in PPM tumors; experiment: STING pathway activation in PPM tumors; conditions: mouse, in vivo
Protocol: Tumors were first mechanically disrupted by chopping, then chemically digested in collagenase buffer (8 mL DMEM, 0.1 mL 1M HEPES, 0.5 mL FBS, 0.2 mL Pen/Strep, 1 m, 10× collagenase/hyaluronidase (Stemcell Technologies), 0.2 mL of 1 mg/mL DNase I (Stemcell Technologies) at 37° C. for 45 min. Single-cell suspensions of spleen and lymph nodes were obtained by mashed through a 70 um strainer using the plunger of a 3 mL or 5 mL syringe. Single cells suspensions were treated with red blood lysis buffer (4 mL NH4Cl+1 mL PBS with 2% calf serum) and washed with FACS buffer. Single cells suspensions were incubated with LIVE/DEAD Fixable Aqua Dead Cell Stain (Life Technologies, Cat # L34965) for 30 min and then blocked with anti-CD16/32 (BioLegend, clone 93) for 20 min on ice. Samples were then incubated with appropriate antibodies for 30 min. on ice. The Foxp3 staining buffer set (eBioscience, Cat #00-5523-00) was applied for intracellular markers staining. For the intracellular cytokine analysis, cells were stimulated with Leukocyte Activation Cocktail (BD Biosciences, Cat #550583) at 37° C. for 5 hours prior to FACS staining. […] Flow cytometry was performed on an LSR II (BD Biosciences) or LSRFortessa™ HTS (BD Biosciences) at the DFCI flow cytometry core facility, and all the data were analyzed using FlowJo software. […]

[4] = tested on: STING pathway in BMDCs co-cultured with PBM cells; experiment: Co-culture of BMDCs with olaparib-treated PBM tumor cells; format: cell-based, mouse
Protocol: as §1
Bone marrow cells were isolated from FVB/NJ mice and cultured in RPMI-1640 containing 10% FBS and 20 ng/ml GM-CSF. BMDCs (bone marrow derived dendritic cells) were harvested for in vitro co-culture assay on day 7 to day 10. About 3×10^5 PBM or PPM tumor cells were cultured in a 6-well plate for 24 hr. and then treated with DMSO or olaparib. After 24 hr incubation with DMSO, olaparib, or olaparib in combination with other drugs (cell cycle inhibitor or apoptosis inhibitor), drugs were removed and tumor cells were washed twice with PBS. BMDCs were added and co-cultured with PBM or PPM cells at a ratio of 1:1 in 1.5 ml culture media in the presence of GM-CSF (20 ng/ml) and lipofectamine (2 μl) for 24 hr. Co-cultured cells were harvested for flow cytometry analysis and floating cells (percentage of BMDCs is about 90%), or RNA analysis. Cell culture supernatants were collected for detection of IFN-β with the ELISA kit. BMDCs generated from C57BL/6J mice were applied for the coculture of BMDCs with ID8 tumor cells. Human dendritic cells purchased from Lonza were used for the coculture of human DCs with DMSO or olaparib-treated human ovarian cancer cells ([…] and UWB1.289+BRCA1).
About 50 to 100 mg of tumor samples were homogenized in 1 ml of TRIzol™ Reagent supplied with 200 μl of stainless steel beads and 0.2 ml of chloroform was added to the samples. Samples were vortexed vigorously for 15 seconds and then incubated at room temperature for 2 to 3 minutes. After centrifugation at 12,000×g for 15 minutes at 4° C., upper aqueous phase of the samples was carefully removed to a new tube and the total RNA was purified using an RNeasy® Mini Kit (Qiagen) according to manufactory's instruction. For the in vitro cultured cell samples, total RNA was isolated using an RNeasy® Mini Kit. The qPCR was performed on an Applied Biosystems 7300 machine after the total RNA was reverse transcribed to cDNA using the SuperScript® III First-Strand Synthesis System (Invitrogen). Primers used for qPCR were as follows: […]

[5] = tested on: STING pathway in BMDCs co-cultured with PPM cells; experiment: Co-culture of BMDCs with olaparib-treated PPM tumor cells; format: cell-based, mouse
Protocol: as §1
Bone marrow cells were isolated from FVB/NJ mice and cultured in RPMI-1640 containing 10% FBS and 20 ng/ml GM-CSF. BMDCs (bone marrow derived dendritic cells) were harvested for in vitro co-culture assay on day 7 to day 10. About 3×10^5 PBM or PPM tumor cells were cultured in a 6-well plate for 24 hr. and then treated with DMSO or olaparib. After 24 hr incubation with DMSO, olaparib, or olaparib in combination with other drugs (cell cycle inhibitor or apoptosis inhibitor), drugs were removed and tumor cells were washed twice with PBS. BMDCs were added and co-cultured with PBM or PPM cells at a ratio of 1:1 in 1.5 ml culture media in the presence of GM-CSF (20 ng/ml) and lipofectamine (2 μl) for 24 hr. […]

[6] = tested on: PBM cells; experiment: Cytosolic dsDNA (PicoGreen) and micronuclei staining, PBM cells; format: cell-based, mouse; conditions: 2.5 μM, 24 h
Protocol: PBM and PPM cells were cultured on chambered cell culture slides (BD Falcon). Cells were treated with 2.5 μM olaparib or vehicle control (DMSO) for 24 hours. Following the treatment, cells were incubated with culture media containing PicoGreen double-stranded DNA stain (200-fold dilution, Life Technologies). After one-hour incubation, cells were fixed with 4% paraformaldehyde in PBS (Santa Cruz Biotechnology) for 10 minutes. Cells were then washed twice with PBS and stained with 300 nM DAPI (Thermo Fisher Scientific) for 10 minutes. Coverslips were mounted using ProLong Diamond Antifade Mountant (Thermo Fisher Scientific). Staining was imaged using a Leica SP5X laser scanning confocal microscope.

O=C(c1cc(Cc2n[nH]c(=O)c3ccccc23)ccc1F)N1CCN(C(=O)C2CC2)CC1 [olaparib, Olaparib]
CD80, CD86 and MHC class II expression on tumor associated DCs [1]: increased levels | CD103+ DCs at the tumor site [1]: increased | IFNγ and TNFα production by intratumoral CD4+ and CD8+ T cells [1]: significantly increased the production | PD-1/TIM-3 and PD-1/Lag3 co-expression (exhausted state) on intratumoral CD8+ T cells [1]: reduced expression; also recorded: reduced the exhausted state | effector CD8+ T cells in malignant ascites of the peritoneal cavity [1]: Increase | frequency of intratumoral FoxP3+ Treg [1]: not changed | immune cell (CD45+) infiltration into tumor [1]: Increased | intratumoral MDSC cells (CD11b+Gr1+; gMDSC) [1]: reduced | number of intratumoral CD4+ and CD8+ T cells [1]: significantly increased; also recorded: increased the number | intratumoral MDSC cells (CD11b+Gr1+; gMDSC) ([1]; listed as Olaparib): decrease | plasma/sera cytokine levels (CXCL9, CXCL10, IFNβ and others) [2]: significant increase; also recorded: increased levels of multiple cytokines | plasma/sera cytokine levels (CXCL9, CXCL10, IFNβ and others) ([2]; listed as Olaparib): changes on the levels of various cytokines | hallmarks of STING pathway activation in PPM tumors [3]: not observed | phosphorylation of TBK1 and IRF3 (p-TBK1+p-IRF3+) in BMDCs ([4]; co-cultured with olaparib-treated PBM cells vs DMSO): increased phosphorylation | IFN-β and CXCL10 expression in BMDCs ([4]; co-cultured with olaparib-treated vs non-treated/DMSO PBM cells, mRNA and protein): Significantly enhanced expression; also recorded: markedly increased expression | STING-dependent activation of BMDCs (IFNβ and CXCL10 expression) [5]: not observed | cytosolic dsDNAs and micronuclei [6]: increased
